Experimental data from patent US11267809B2, “BAF complex modulating compounds and methods of using the same” (THE BOARD OF TRUSTEES OF THE LELAND STANFORD JUNIOR …, priority 2017, dated 2022).

Experiments:
Assay type in all cases: cell-based, human
[1] = system: HCT116 ARID1A(+/+) cells; experiment: Cell cycle analysis after double thymidine block synchronization
Experimental: To investigate this, we synchronized cells in the early G1/S phase and then tracked their progression through the cell cycle upon release into media containing BAFi. To assess the full cell cycle, time points were collected beginning at early G0/G1 of the second cycle following release from thymidine block. […] This is consistent with our observation that BAFi independently has minimal toxicity or effects on proliferation. […] Further, we observe that when BAFi cells are treated with VE-821, their decreased entry and slowed progression through S Phase results in an inability to successfully complete their transition through the cell cycle, akin to knockout of ARID1A. […]
For hour-by-hour analysis, cells were collected, rinsed with PBS, and vortexed while adding 1mL ice cold 70% ethanol. […] Individual cells were gated based on forward and side scatter, auto fluorescent cells were omitted, and remaining cells were then analyzed for propidium iodide levels. To determine the percent of cells in each phase, DNA content histograms histograms were analyzed using R-package “mixtools” EM algorithm for mixtures of univariate normals. The areas of each mixed normal distribution were calculated to represent the total number of cells in each phase of the cell cycle. […] ESCs were incubated with BrdU for 1 h and the percent of cells in G2/M, stained with 7-AAD and analyzed on a BD FACScan.

[2] = system: MCF-7 cells; experiment: Synergy viability assay, MCF-7; conditions: with VE-821 (1.25-20 uM each)
Excerpt: (§1) In ARID1A-deficient tumors, ATR inhibition is thought to trigger premature mitotic entry and chromosome instability that cannot be resolved, resulting in mitotic catastrophe^27. […] We sought to assess whether generic BAF inhibition might sensitize a host of cancers to ATR inhibition. We tested the efficacy of BAFi and ATRi on nine additional human cancer cell lines including seven Breast cancer cell lines (HCC1143, HCC1954, HCC1187, MDAMB-468, MDA-MB-436, Cal-51, MCF-7) and two renal clear cell carcinoma cell lines (A-704, and ACHN). Cal-51 and MCF-7 are both considered aggressive, highly mutated breast cancer cell lines with numerous COSMIC Census gene mutations (FIG. 10). HCC1143 and MDA-MB-468 are sporadic basal-likecancers, HCC1187 is a triple-negative breast cancer, and HCC1954 and MDA-MB-436 are BRCA1 mutant breast cancers which harbor single driver mutations. To assess synergy, each cell line was treated with 5 doses of VE-821 (1.25 uM-20 uM) and 5 doses of Baficillin1 (1.25 uM-20 uM), both independently and with all possible combinations. Like HCT-116 cells, Baficillin1 sensitized MCF-7 and Cal-51 cells lines to treatment with VE-821 (FIG. 6a).
(§2) Viability assays were performed in 384-well plates. Cells were plated at 500 cells/well. […] After 5 days, cellular viability was measured using CellTitre blue, as described by the manufacturer.

[3] = system: HCT116 cells infected with shRNA lentivirus targeting ARID1A; experiment: Synergy viability assay, HCT116 with shARID1A knockdown
Excerpt: SMARCA4, the primary target of our original screen, is present in both human BAF and PBAF complexes in cancer^12. PBAF complexes differ from BAF complexes by incorporation of specific subunits. Specifically, PBAF complexes contain ARID2 (as opposed to ARID1A/B), PHF10 (BAF45a) (as opposed to […] (BAF45d)), PBRM1, and lack the BAF-specific subunit SS18. PBAF specific subunits are also frequently mutated in cancer, specifically renal clear cell carcinomas and cholangiocarcinomas^33-36. To assess whether the lead compound is targeting BAF, PBAF complexes, or both, we constitutively knocked down ARID1A or ARID2 by lentiviral transduction of HCT116 cells and compared the BAFi/ATRi synergy to the wild-type (ARID1A+/+). […] Further, upon knockdown of ARID1A or ARID2 (FIG. 3b), the synergistic effect observed between Baficillin1 and VE-821 was ablated upon loss of ARID1A (FIG. 3e) (CIshARID1A=1.48±0.14), but not loss of shARID2 (CIshARID2=0.42±0.04) (FIG. 3c-e).
Viability assays were performed in 384-well plates. Cells were plated at 500 cells/well. Each drug was administered in 5-doses with 4 replicates per plate, and each 5×5 drug combination was administered with 8 replicates per plate, 24 hours after seeding. All error bars represent 4 or 8 technical replicates averaged over 3 independent experiments. Media containing fresh drug was replaced every 48 hours. After 5 days, cellular viability was measured using CellTitre blue, as described by the manufacturer.
Lentiviruses were produced in Lenti-X 293T cells (Clonetech) via spinfection with polyethylenimine transfection. 293T-x cells were transfected with PEI (Polysciences Inc., 24765) with lentiviral PLKO shARID1A or GIPZ shARID2 knockdown vectors, co-transfected with packaging vectors pspax2 and pMD2.G as previously described^49. PLKO shRNA construct targeting ARID1A (TRCN0000059090: shRNA-2) was obtained^50 and GIPZ Human ARID2 shRNA was purchased from Dharmacon (CloneId:V2LHS_74399). […]

[4] = system: A-704 renal clear cell carcinoma cell line; experiment: Synergy viability assay, A-704; conditions: with VE-821, PBRM1 mutant line
Excerpt: as §1, §2

[5] = system: ACHN renal clear cell carcinoma cell line; experiment: Synergy viability assay, ACHN; conditions: with VE-821, PBRM1 mutant line
Excerpt: as §1, §2

[6] = system: Cal-51 cells; experiment: Synergy viability assay, Cal-51; conditions: with VE-821 (1.25-20 uM each)
Excerpt: as §1, §2

For `CO[C@H]1CN(C)C(=O)c2cc(NC(=O)NC(C)C)ccc2OC[C@H](C)N(Cc2ccc(-c3ccccn3)cc2)C[C@@H]1C` [Baficillin1], the S/G2 crossover time ([1]; 10 uM Baficillin1 in combination with ATRi (VE-821 10 uM)) was roughly 7.5 h, the cell cycle rate ([1]; Baficillin1 10 uM alone) was roughly 11 hr per cycle and the “combination index (CI MCF-7)” value [2] was 0.45±0.04. For the same compound, the “sensitivity (cell survival) compared to wild-type HCT116” value ([3]; single agent, 5 continuous days) was “slightly less sensitive”, the “combination index (CI shARID1A)” value ([3]; with VE-821, 5 days) was 1.48±0.14 and the “combinatorial effects of BAFi/ATRi” value [4] was “antagonism”. For the same compound, the “combinatorial effects of BAFi/ATRi” value [5] was “antagonism” and the “combination index (CI Cal-51)” value [6] was 0.57±0.09.
